# Test results taken from patent publication US12329745B2, “Methods and compositions for treating glucocorticoid excess” (Sparrow Pharmaceuticals, Inc., priority 2022, dated 2025).
# pIC50, pKd, pKi: −log10 of the molar value. Like-named read-outs stand apart in the source and are kept apart here.
# Assays:
# C57BL/6 male mice = experiment: Mitigation of corticosterone (CORT) adverse effects in mouse; type: in vivo; set-up: food consumption, group Mean: unit not given here
# Procedure: A control group received no CORT or SPI-62. Body weight was assessed daily and food consumption twice weekly. Whole body muscle and fat amounts were measured at Days 0, 14, and 28 using an EchoMRI-130H body composition analyzer. Blood samples for fasting glucose and insulin were obtained at Days 1 (pre-dose), 15, 29, and 35. An open field test was conducted on Day 22. A grip strength test was performed on Day 28. After sacrifice on Day 36, gonadal, subcutaneous, retroperitoneal, and mesenteric fat, quadriceps, and tibialis anterior were dissected and weighed, and skin was formalin fixed and paraffin embedded.
# [1] = Human plasma pharmacokinetics of SPI-62; type: in vivo; details: for Cmax: human, plasma, oral
# Procedure: The single- and multiple-dose pharmacokinetics of SPI-62 were well-characterized by a two-compartment TMDD population pharmacokinetics model with 3 transit absorption compartments and an estimated target capacity of ˜2.5 mg of SPI-62 which comports well with the dose range in which pharmacokinetic nonlinearity is prominent.
# HSD-1 = HSD-1 (Homo sapiens, UniProt P28845); experiment: Target-mediated drug disposition (TMDD) population PK / PK-PD model
# serum cortisone = experiment: Serum cortisone and cortisol in patients with painful diabetic peripheral neuropathy; type: in vivo, human; details: 10 mg for 6 weeks
# purified human HSD-1 = purified human HSD-1 (Homo sapiens, UniProt P28845); experiment: In vitro inhibition of purified human HSD-1; type: biochemical
# adipose HSD-1 = biological target: T1, adipose HSD-1 (Homo sapiens, UniProt P28845); experiment: Adipose HSD-1 inhibition by microdialysis (D8 cortisone to D8 cortisol) in subjects with type 2 diabetes given SPI-62; type: in vivo
# T1 construct: infused continuously into subcutaneous abdominal adipose tissue via microdialysis catheters; from tissue; host or cells: human subcutaneous abdominal adipose tissue, in vivo
# Procedure: Male and non-menstruating female subjects with type 2 diabetes aged between 18 and 65 years with a body mass index between 30.0 and 45.0 were administered SPI-62 daily for 14 days. […] Percent adipose HSD-1 inhibition was calculated as: 100*(1-(MPFt/MPFbaseline).
# The time (t) of the sample was considered to be the midpoint of the collection interval. […] Data shown are the median inhibition observed in two subjects for whom the SPI-62 daily dose was 6 mg.
# Male and non-menstruating female subjects with type 2 diabetes aged between 18 and 65 years with a body mass index between 30.0 and 45.0 were administered SPI-62 daily for 14 days. In addition to the six subjects described in Example 1 who received SPI-62 1, 3, or 6 mg for 14 days, six additional subjects received SPI-62 1, 2, 3, or 10 mg for 5 to 8 days. […] Percent adipose HSD-1 inhibition was calculated as: 100*(1-(MPFt/MPFbaseline). The time (t) of the sample was considered to be the midpoint of the collection interval. A higher sensitivity assay for D8 cortisol was used to enable quantitation of adipose HSD-1 inhibition of >95%.
# T1 sequence (P28845 whole entry, the tested form may be a part): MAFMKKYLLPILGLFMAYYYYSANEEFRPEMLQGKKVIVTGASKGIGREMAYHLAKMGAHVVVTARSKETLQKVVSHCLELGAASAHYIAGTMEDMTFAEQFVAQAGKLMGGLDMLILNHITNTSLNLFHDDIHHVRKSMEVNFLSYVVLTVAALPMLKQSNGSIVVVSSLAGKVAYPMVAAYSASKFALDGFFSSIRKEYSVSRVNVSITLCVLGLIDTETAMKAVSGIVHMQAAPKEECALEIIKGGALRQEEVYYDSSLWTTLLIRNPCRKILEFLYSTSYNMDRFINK
# Chain of HSD-1 (P28845 whole entry): as the sequence (P28845 whole entry, the tested form may be a part) above
# Chain of purified human HSD-1 (P28845 whole entry): as the sequence (P28845 whole entry, the tested form may be a part) above
structure (smiles),measurement,setting,value
"Cn1c(-c2ccc(C(N)=O)cc2F)nnc1C(C)(C)Oc1c(F)cc(Cl)cc1F [SPI-62, 4-(5-(2-(4-chloro-2,6-difluorophenoxy)propan-2-yl)-4-methyl-4H-1,2,4-triazol-3-yl)-3-fluorobenzamide]","body weight, group Mean","C57BL/6 male mice; 10 mpk BID + CORT, Day 15",21.5 g
same,"food consumption, group Mean","C57BL/6 male mice; 10 mpk BID + CORT, Day 15",2.74
same,"food consumption, group Mean","C57BL/6 male mice; 10 mpk BID + CORT, Day 18",3.36
same,"food consumption, group Mean","C57BL/6 male mice; 10 mpk BID + CORT, Day 22",2.89
same,"food consumption, group Mean","C57BL/6 male mice; 10 mpk BID + CORT, Day 25",3.13
same,"body weight, group Mean","C57BL/6 male mice; 10 mpk BID + CORT, Day 29",21.7 g
same,"food consumption, group Mean","C57BL/6 male mice; 10 mpk BID + CORT, Day 29",2.79
same,"food consumption, group Mean","C57BL/6 male mice; 10 mpk BID + CORT, Day 32",3.27
same,"body weight, group Mean","C57BL/6 male mice; 10 mpk BID + CORT, Day 35",21.8 g
same,"food consumption, group Mean","C57BL/6 male mice; 10 mpk BID + CORT, Day 36",2.83
same,"body weight, group Mean","C57BL/6 male mice; 10 mpk QD + CORT, Baseline",22 g
same,"food consumption, group Mean","C57BL/6 male mice; 10 mpk QD + CORT, Day 4",3.37
same,"food consumption, group Mean","C57BL/6 male mice; 10 mpk QD + CORT, Day 8",2.98
same,"food consumption, group Mean","C57BL/6 male mice; 10 mpk QD + CORT, Day 11",3.11
same,"body weight, group Mean","C57BL/6 male mice; 10 mpk QD + CORT, Day 15",21.4 g
same,"food consumption, group Mean","C57BL/6 male mice; 10 mpk QD + CORT, Day 15",2.91
same,"food consumption, group Mean","C57BL/6 male mice; 10 mpk QD + CORT, Day 18",3.08
same,"food consumption, group Mean","C57BL/6 male mice; 10 mpk QD + CORT, Day 22",3.15
same,"food consumption, group Mean","C57BL/6 male mice; 10 mpk QD + CORT, Day 25",3.50
same,"body weight, group Mean","C57BL/6 male mice; 10 mpk QD + CORT, Day 29",22.2 g
same,"food consumption, group Mean","C57BL/6 male mice; 10 mpk QD + CORT, Day 29",2.99
same,"food consumption, group Mean","C57BL/6 male mice; 10 mpk QD + CORT, Day 32",3.00
same,"body weight, group Mean","C57BL/6 male mice; 10 mpk QD + CORT, Day 35",22.8 g
same,"food consumption, group Mean","C57BL/6 male mice; 10 mpk QD + CORT, Day 36",3.24
same,CORT effects on dermal thickness and structure,"C57BL/6 male mice; 35 days, FIG. 12",less prominent
same,effect in the open field test,C57BL/6 male mice; Day 22,No effect
same,CORT adverse effect of grip strength reduction,C57BL/6 male mice; Day 28,prevented
same,unbound concentration corresponding to Cmax,[1]; 0.2 mg daily for 14 days,< 0.25 nM
same,"plasma levels after 14 days of dosing, dose proportionality",[1]; doses of 0.2 to 50 mg,approximately dose-proportional
same,Cmax,"[1]; 0.2 mg, 0.2 mg daily for 14 days, last dosing day, read-out: mean maximum plasma drug concentration (Cmax)",< 1 ng/mL
same,Cmax,"[1]; 1 mg, single dose 1 mg, read-out: mean Cmax",< 0.05 ng/mL
same,Cmax,"[1]; multiple doses 0.2 to 50 mg, read-out: Cmax means",1 to 835 ng/mL
same,Cmax,"[1]; single doses of 6 to 60 mg, read-out: Cmax means",28 to 595 ng/mL
same,plasma drug levels (all below the LLOQ),[1]; single 1 mg dose,< 0.1 ng/mL
same,unbound concentration corresponding to Cmax,[1]; single dose 1 mg,< 0.012 nM
same,"plasma exposures after single doses, dose proportionality","[1]; single doses, 0.7 to 3 mg much lower dose-normalized levels",substantial non-linearity
same,estimated target capacity,[1]; two-compartment TMDD population pharmacokinetics model,~2.5 mg
same,pIC50,HSD-1,10.63
same,pKd,HSD-1,9.74
same,estimated total target amount (RTOT+RTA) as SPI-62,"HSD-1; both, human, in vivo",3.6 mg
same,Kd lower than the Ki,HSD-1; in vivo,approximately 60 fold
same,estimated Kd lower than Ki for purified human HSD-1,HSD-1; in vivo,29 fold
same,estimated Kd lower than measured Ki for human HSD-1 expressed in CHO cells,HSD-1; in vivo,69 fold
same,Hill coefficient,HSD-1; model parameter estimate,1.42
same,association rate constant (kon),HSD-1; model parameter estimate,400000 M⁻¹ s⁻¹
same,total target amount in the adipose compartment (RTA),HSD-1; model parameter estimate,671 nM
same,koff,HSD-1; read-out: dissociation rate constant (koff),7.33e-05 s⁻¹
same,serum cortisol,serum cortisone,did not change
same,serum cortisone,serum cortisone; last day of study drug administration (n=36),56.0 (2.37) nM
same,serum cortisone,serum cortisone; two weeks later,49.5 (1.75) nM
same,pIC50,purified human HSD-1,7.77
same,pKi,purified human HSD-1,8.28
same,"adipose HSD-1 inhibition, 2nd v 14th dose intervals",adipose HSD-1; SPI-62 6 mg daily,almost identical
same,time after a single dose at which adipose HSD-1 inhibition was detected,"adipose HSD-1; SPI-62 6 mg daily, median of two subjects, FIG. 1",2 to 4 h
same,adipose HSD-1 inhibition during the 2nd dose interval,"adipose HSD-1; SPI-62 6 mg daily, quantitation limited to ~90-95%",maximal measurable levels
same,adipose HSD-1 inhibition after multiple doses,"adipose HSD-1; SPI-62 1, 2, 3, or 10 mg",maximum measurable
same,tachyphylaxis of human adipose HSD-1 inhibition with multiple dosing,"adipose HSD-1; human, in vivo",does not show
same,adipose HSD-1 inhibition after lower single doses,adipose HSD-1; lower single SPI-62 doses,no or limited
